{"source": "paper PMC11820409", "about": "“Synthesis and Evaluation of the AhR Activity of Indolo[3,2-b]carbazole Derivatives” (Molecules, 2025)", "key": {"[1]": {"molecular_target": "T1, AhR (Cavia porcellus, UniProt Q6J287)", "T1 construct": "cells that were stably transfected with a luciferase reporter gene; endogenous in cells; host or cells: G16L7.5c1 (guinea pig)", "T1 sequence (Q6J287 1-846)": "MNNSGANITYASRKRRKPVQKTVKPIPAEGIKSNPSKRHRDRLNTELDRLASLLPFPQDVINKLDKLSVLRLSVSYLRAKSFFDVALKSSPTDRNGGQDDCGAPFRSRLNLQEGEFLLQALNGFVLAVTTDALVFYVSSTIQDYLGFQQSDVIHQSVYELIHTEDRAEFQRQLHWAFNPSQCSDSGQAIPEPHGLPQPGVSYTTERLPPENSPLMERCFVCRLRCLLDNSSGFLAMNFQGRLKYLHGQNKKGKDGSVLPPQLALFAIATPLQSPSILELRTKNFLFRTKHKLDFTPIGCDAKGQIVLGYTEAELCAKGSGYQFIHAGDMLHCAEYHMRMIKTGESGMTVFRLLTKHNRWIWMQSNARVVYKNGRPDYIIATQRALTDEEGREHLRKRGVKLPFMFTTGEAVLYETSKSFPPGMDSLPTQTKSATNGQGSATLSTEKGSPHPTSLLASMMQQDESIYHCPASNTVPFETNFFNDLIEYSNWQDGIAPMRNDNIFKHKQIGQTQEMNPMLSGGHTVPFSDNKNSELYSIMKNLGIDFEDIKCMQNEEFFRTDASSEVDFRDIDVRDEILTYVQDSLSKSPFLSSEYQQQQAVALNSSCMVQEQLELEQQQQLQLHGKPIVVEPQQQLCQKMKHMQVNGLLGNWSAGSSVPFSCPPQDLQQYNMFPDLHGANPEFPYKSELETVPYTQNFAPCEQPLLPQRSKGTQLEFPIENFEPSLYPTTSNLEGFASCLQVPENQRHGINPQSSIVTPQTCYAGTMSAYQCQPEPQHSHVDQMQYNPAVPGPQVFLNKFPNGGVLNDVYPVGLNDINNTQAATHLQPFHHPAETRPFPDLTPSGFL", "experiment": "AhR induction, luciferase reporter gene (CALUX), guinea pig G16L7.5c1 cells", "type": "cell-based", "conditions": "6 h incubation", "description": "(§1) The activity on AhR of the synthesized compounds was evaluated in cells that were stably transfected with a luciferase reporter gene. They were tested in four different cell lines, namely in human (HG2L7.5c1), mouse (H1L7.5c3), rat (H4L7.5c2) and guinea pig (G16L7.5c1) cells.\n(§2) The synthesized alkaloids were evaluated for their ability to induce AhR in four different cell lines, more specifically in human (HG2L7.5c1), mouse (H1L7.5c3), rat (H4L7.5c2) and guinea pig (G16L7.5c1) cells that were stably transfected with a luciferase reporter gene. The results were calculated in EC50 (M) and compared to those of dioxin (TCDD), the principal ligand of the receptor. The protocol followed is described below.\n(§3) Human, mouse, rat and guinea pig cells were grown in 100 mm cell culture plates (Corning Glass Works; Corning, NY, USA) using a sterile technique, maintained in alpha-minimum essential media (α-MEM) supplemented with 10% (v/v) fetal bovine serum (FBS) and G418 (1 mg/mL), and incubated at >80% humidity and 37◦C. For the CALUX analysis, plates of stable cell clones (approximately 80–100% confluent) were trypsinized and resuspended in 20 mL α-MEM. An aliquot (100 μL) of the indicated cell suspension was added into sterile 96-well tissue culture plates (Corning), and the plates were incubated for 24 h prior to ligand exposure, allowing the cells to reach confluence. Prior to ligand addition, the wells were washed with 1 × phosphate-buffered saline (PBS), and then, cells were incubated with the indicated concentration of DMSO (10 μL/mL) or corresponding solutions of TCDD or tested compounds in DMSO for 6 h or 24 h at 37 °C. After incubation, the cells were washed twice with PBS, 100 μL of 1 × Lysis buffer (Promega; Madison, WI, USA) was added to each well, and the plate was placed on a plate shaker at room temperature until the cells were lysed (approximately 20 min). Luciferase activity was measured using an automated microplate luminometer (Anthos Lucy2, Anthos Labtec Instruments, Wals/Salzburg, Austria) in enhanced flash mode with the automatic injection of 50 μL of Promega-stabilized luciferase reagent. Examples of the induction curves of the tested compounds are available in the Supplementary Materials."}, "[2]": {"molecular_target": "T2, AhR (Rattus norvegicus, UniProt P41738)", "T2 construct": "cells that were stably transfected with a luciferase reporter gene; endogenous in cells; host or cells: H4L7.5c2 (rat)", "T2 sequence (P41738 10-853)": "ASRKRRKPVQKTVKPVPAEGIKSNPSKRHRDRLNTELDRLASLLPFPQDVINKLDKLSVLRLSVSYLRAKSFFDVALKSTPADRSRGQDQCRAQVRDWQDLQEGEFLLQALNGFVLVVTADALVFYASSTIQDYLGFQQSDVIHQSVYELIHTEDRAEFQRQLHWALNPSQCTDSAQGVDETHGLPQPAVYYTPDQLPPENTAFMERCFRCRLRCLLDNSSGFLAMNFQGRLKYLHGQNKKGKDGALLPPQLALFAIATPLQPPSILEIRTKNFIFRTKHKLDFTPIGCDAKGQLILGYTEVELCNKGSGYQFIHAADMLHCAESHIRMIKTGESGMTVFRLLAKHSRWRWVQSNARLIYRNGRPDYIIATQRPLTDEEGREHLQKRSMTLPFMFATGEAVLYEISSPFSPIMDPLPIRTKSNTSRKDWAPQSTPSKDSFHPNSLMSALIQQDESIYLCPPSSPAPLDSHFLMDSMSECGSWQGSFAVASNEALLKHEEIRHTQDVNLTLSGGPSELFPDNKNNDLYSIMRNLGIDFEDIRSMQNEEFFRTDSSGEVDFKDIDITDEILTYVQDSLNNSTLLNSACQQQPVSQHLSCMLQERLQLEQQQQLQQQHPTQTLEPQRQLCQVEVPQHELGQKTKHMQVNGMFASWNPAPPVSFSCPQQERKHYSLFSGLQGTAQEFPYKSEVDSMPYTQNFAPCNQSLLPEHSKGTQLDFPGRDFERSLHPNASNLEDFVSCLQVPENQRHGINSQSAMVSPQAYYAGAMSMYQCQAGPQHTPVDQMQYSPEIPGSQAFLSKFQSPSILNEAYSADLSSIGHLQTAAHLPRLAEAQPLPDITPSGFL", "experiment": "AhR induction, luciferase reporter gene (CALUX), rat H4L7.5c2 cells", "type": "cell-based", "conditions": "6 h incubation", "description": "as §1, §2, §3"}, "[3]": {"molecular_target": "T3, AhR (Mus musculus, UniProt P30561)", "T3 construct": "cells that were stably transfected with a luciferase reporter gene; endogenous in cells; host or cells: H1L7.5c3 (mouse)", "T3 sequence (P30561 10-805 limits assumed)": "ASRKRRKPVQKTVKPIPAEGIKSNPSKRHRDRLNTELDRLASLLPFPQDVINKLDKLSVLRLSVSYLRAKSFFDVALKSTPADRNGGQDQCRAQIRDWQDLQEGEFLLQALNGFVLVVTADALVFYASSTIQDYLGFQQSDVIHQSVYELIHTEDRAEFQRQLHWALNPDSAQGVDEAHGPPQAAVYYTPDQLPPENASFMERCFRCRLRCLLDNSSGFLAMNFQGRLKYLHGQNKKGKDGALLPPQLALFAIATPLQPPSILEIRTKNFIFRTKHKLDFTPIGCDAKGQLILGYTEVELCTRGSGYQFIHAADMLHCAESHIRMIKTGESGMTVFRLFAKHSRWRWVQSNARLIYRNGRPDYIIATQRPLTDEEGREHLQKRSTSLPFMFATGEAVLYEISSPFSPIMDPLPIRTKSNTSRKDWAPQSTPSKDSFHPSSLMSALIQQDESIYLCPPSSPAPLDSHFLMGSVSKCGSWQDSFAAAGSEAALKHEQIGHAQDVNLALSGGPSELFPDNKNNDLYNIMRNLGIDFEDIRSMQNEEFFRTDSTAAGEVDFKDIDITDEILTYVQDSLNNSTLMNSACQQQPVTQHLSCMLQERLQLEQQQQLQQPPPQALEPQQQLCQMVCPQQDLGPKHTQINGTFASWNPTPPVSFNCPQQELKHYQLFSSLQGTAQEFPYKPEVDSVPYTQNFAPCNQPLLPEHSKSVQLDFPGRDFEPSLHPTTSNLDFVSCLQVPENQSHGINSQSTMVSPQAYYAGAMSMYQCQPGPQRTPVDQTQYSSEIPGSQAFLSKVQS", "T3 sequence (P11499 whole entry partner)": "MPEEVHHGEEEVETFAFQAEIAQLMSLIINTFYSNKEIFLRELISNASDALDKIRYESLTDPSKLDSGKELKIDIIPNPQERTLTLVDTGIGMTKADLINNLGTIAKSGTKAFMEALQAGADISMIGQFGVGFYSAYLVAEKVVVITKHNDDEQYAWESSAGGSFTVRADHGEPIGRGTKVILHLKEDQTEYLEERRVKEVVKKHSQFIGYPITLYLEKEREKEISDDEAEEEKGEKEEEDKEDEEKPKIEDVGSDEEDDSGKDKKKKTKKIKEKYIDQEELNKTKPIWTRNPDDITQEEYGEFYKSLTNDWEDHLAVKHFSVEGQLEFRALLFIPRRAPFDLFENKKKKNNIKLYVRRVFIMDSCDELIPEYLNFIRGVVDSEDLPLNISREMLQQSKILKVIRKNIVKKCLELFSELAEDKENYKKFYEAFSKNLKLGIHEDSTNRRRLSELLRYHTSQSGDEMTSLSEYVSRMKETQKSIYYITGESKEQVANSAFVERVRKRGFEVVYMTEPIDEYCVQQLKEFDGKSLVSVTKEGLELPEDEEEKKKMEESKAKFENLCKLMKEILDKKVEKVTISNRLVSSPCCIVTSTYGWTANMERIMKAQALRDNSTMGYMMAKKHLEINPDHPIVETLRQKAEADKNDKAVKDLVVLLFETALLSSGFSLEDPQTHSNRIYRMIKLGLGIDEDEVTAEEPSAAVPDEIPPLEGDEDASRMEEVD", "T3 sequence (O08915 whole entry partner)": "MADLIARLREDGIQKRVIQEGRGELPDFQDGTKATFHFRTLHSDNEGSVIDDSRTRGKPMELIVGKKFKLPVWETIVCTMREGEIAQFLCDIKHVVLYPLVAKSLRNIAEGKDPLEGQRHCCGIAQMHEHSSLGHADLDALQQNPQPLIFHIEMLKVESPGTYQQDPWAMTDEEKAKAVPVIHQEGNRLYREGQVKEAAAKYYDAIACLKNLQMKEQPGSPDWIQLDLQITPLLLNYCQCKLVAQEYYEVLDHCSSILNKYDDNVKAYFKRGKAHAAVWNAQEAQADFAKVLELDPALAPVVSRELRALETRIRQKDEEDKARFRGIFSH", "experiment": "AhR induction, luciferase reporter gene (CALUX), mouse H1L7.5c3 cells", "type": "cell-based", "description": "as §1, §2, §3"}, "[4]": {"molecular_target": "T4, AhR (Homo sapiens, UniProt P35869)", "T4 construct": "cells that were stably transfected with a luciferase reporter gene; endogenous in cells; host or cells: HG2L7.5c1 (human)", "T4 sequence (P35869 11-848)": "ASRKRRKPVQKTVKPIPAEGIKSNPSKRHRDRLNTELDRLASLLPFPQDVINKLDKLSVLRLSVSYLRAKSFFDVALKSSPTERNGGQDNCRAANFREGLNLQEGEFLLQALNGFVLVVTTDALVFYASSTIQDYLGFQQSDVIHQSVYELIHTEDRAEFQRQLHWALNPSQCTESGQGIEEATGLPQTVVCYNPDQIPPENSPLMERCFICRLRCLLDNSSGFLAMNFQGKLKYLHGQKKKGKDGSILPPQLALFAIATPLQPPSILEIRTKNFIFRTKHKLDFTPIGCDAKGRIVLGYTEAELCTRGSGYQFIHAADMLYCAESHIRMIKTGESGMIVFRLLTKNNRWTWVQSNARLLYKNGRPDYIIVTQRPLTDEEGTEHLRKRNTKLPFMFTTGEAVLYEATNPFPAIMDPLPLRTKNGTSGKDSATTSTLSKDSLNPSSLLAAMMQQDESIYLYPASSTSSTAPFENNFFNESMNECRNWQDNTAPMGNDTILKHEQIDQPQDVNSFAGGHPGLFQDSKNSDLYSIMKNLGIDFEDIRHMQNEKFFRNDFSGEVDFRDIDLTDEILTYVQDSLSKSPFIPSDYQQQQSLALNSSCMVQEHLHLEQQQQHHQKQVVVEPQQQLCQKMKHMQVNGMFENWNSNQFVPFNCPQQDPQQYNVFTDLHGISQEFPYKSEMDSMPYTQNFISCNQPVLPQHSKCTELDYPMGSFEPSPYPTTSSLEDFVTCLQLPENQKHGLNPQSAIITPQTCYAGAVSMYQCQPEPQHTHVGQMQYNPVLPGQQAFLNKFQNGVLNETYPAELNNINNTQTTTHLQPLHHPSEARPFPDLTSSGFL", "experiment": "AhR induction, luciferase reporter gene (CALUX), human HG2L7.5c1 cells", "type": "cell-based", "conditions": "6 h incubation", "procedure": "The synthesized alkaloids were evaluated for their ability to induce AhR in four different cell lines, more specifically in human (HG2L7.5c1), mouse (H1L7.5c3), rat (H4L7.5c2) and guinea pig (G16L7.5c1) cells that were stably transfected with a luciferase reporter gene [41]. The results were calculated in EC50 (M) and compared to those of dioxin (TCDD), the principal ligand of the receptor.\nHuman, mouse, rat and guinea pig cells were grown in 100 mm cell culture plates (Corning Glass Works; Corning, NY, USA) using a sterile technique, maintained in alpha-minimum essential media (α-MEM) supplemented with 10% (v/v) fetal bovine serum (FBS) and G418 (1 mg/mL), and incubated at >80% humidity and 37◦C. For the CALUX analysis, plates of stable cell clones (approximately 80–100% confluent) were trypsinized and resuspended in 20 mL α-MEM. An aliquot (100 μL) of the indicated cell suspension was added into sterile 96-well tissue culture plates (Corning), and the plates were incubated for 24 h prior to ligand exposure, allowing the cells to reach confluence. […] Luciferase activity was measured using an automated microplate luminometer (Anthos Lucy2, Anthos Labtec Instruments, Wals/Salzburg, Austria) in enhanced flash mode with the automatic injection of 50 μL of Promega-stabilized luciferase reagent."}, "[5]": {"system": "AhR", "design": "method as in PMID 31292477", "conditions": "fold reduction vs 6-FICZ; cited from earlier work"}, "[6]": {"conditions": "mouse H1L7.5c3 cells, 6 h incubation, read-out: EC50, 6 h Mouse"}}, "note": "pEC50: −log10 of the molar value. Like-named read-outs stand apart in the source and are kept apart here.", "data": [{"smiles": "O=Cc1c2[nH]c3ccccc3c2cc2[nH]c3ccccc3c12", "note": "[Compound 1, 6-Formylindolo[3,2-b]carbazole]", "values": [{"measurement": "pEC50", "setting": "[1]", "value": 9.24}, {"measurement": "pEC50", "setting": "[2]", "value": 10.10}, {"measurement": "pEC50", "setting": "[3]; [6]", "value": 9.32}]}, {"smiles": "c1ccc2c(c1)[nH]c1cc3c(cc12)[nH]c1ccccc13", "note": "[Compound 2, indolo[3,2-b]carbazole]", "values": [{"measurement": "pEC50", "setting": "[1]", "value": 9.76}, {"measurement": "pEC50", "setting": "[4]", "value": 9.19}, {"measurement": "pEC50", "setting": "[2]", "value": 11.02}, {"measurement": "pEC50", "setting": "[3]; [6]", "value": 9.01}]}, {"smiles": "Cc1c2[nH]c3ccccc3c2cc2[nH]c3ccccc3c12", "note": "[Compound 3, 6-methylindolo[3,2-b]carbazole]", "values": [{"measurement": "pEC50", "setting": "[1]", "value": 10.04}, {"measurement": "pEC50", "setting": "[4]", "value": 9.51}, {"measurement": "pEC50", "setting": "[2]", "value": 10.23}, {"measurement": "pEC50", "setting": "[3]; [6]", "value": 9.04}]}, {"smiles": "OCc1c2[nH]c3ccccc3c2cc2[nH]c3ccccc3c12", "note": "[Compound 4, 6-Hydroxymethylindolo[3,2-b]carbazole]", "values": [{"measurement": "pEC50", "setting": "[1]", "value": 8.24}, {"measurement": "pEC50", "setting": "[4]", "value": 8.34}, {"measurement": "pEC50", "setting": "[2]", "value": 9.33}, {"measurement": "reduced activity in comparison to 6-FICZ", "setting": "[5]", "value": "more than 10 folds"}, {"measurement": "pEC50", "setting": "[3]; [6]", "value": 9.04}]}, {"smiles": "Cc1c2[nH]c3ccccc3c2c(Br)c2[nH]c3ccccc3c12", "note": "[Compound 5, 6-Methyl-12-bromoindolo[3,2-b]carbazole]", "values": [{"measurement": "pEC50", "setting": "[1]", "value": 10.00}, {"measurement": "pEC50", "setting": "[4]", "value": 9.48}, {"measurement": "pEC50", "setting": "[2]", "value": 10.22}, {"measurement": "pEC50", "setting": "[3]", "value": 9.04}]}, {"smiles": "Clc1cc2c(cc1Cl)Oc1cc(Cl)c(Cl)cc1O2", "note": "[TCDD, reference compound]", "values": [{"measurement": "pEC50", "setting": "[1]", "value": 10.00}, {"measurement": "pEC50", "setting": "[4]", "value": 9.24}, {"measurement": "pEC50", "setting": "[2]", "value": 10.23}, {"measurement": "pEC50", "setting": "[3]; [6]", "value": 10.00}]}]}
